Data on four compounds can be found in article PMC8950828 (Viruses, 2022).

For data set [1], the system named is primary human immune cells (monocytes, M1 macrophages, M2 macrophages, MdDCs and T cells). Briefly: Orangu cell viability assay, primary human immune cells overall. As to conditions: all tested immune cell types, 0.5–100 nM.
The nature of data set [2]: in vitro. As to conditions: human.
Data set [3] can be described thus: in vitro. As to conditions: human. The source holds these as a separate data set.
A short description of data set [4]: in vitro. As to conditions: human. This is another data set of the same source.
The nature of data set [5]: in vitro. As to conditions: human. This is another data set of the same source.
A short description of data set [6]: in vitro. As to conditions: human. The source holds these as a separate data set.
Data set [7] relates to 5′-UTRs of HCoV-229E, MERS-CoV and SARS-CoV-2. Type of data set: cell-based, human.
In the next data set the test system is M2 macrophages. As to conditions: human.
For data set [8], the system named is HCoV-229E. As to conditions: cited from earlier work.
Data set [9] relates to SARS-CoV-2. As to conditions: cited from earlier work.
In a further data set the test system is 5′-UTR of HEV (HEVgt3c). Format: cell-based, human.
Data set [10] deals with monocyte-derived dendritic cells (MdDCs). As to conditions: human.
Data set [11] has as its system MERS-CoV. Type of data set: cell-based, Middle East respiratory syndrome coronavirus.
The subject of data set [12] is MERS-CoV. As to conditions: cited from earlier work.
Data set [13] relates to SARS-CoV-2. Description: microbe, parasite or virus in culture. Type of data set: cell-based.
Data set [14] deals with HCoV-229E. Description: microbe, parasite or virus in culture. Format: cell-based, human coronavirus 229E.
Data set [15] relates to MERS-CoV. Briefly: microbe, parasite or virus in culture. Format: cell-based, Middle East respiratory syndrome coronavirus.
The test system of data set [16] is SARS-CoV-2. As to conditions: cited from earlier work. The source holds these as a separate data set.

Like-named read-outs stand apart in the source and are kept apart here.

For `CONC(=O)[C@@H]1[C@H](O)[C@]2(O)c3c(OC)cc(OC)cc3O[C@]2(c2ccc(OC)cc2)[C@H]1c1ccccc1` [CR-1-30-B], the “impact on cell viability” value in data set [1] was “essentially no impact on cell viability at all”. Moreover, the CC50 in the data set “in vitro [2]”, in “in vitro [3]”, in the data set “in vitro [4]”, in the data set “in vitro [5]” and in “in vitro [6]” was more than 100 nM each time.
Consider `CONC(=O)[C@H]1[C@@H](O)[C@@]2(O)c3c(OC)cc(OC)cc3O[C@@]2(c2ccc(OC)cc2)[C@@H]1c1ccccc1` [CR-1-31-B], for which, in data set [7], the “translation efficiency (reporter gene expression) with coronavirus 5′-UTRs” value (“translation efficiency” for short) is on record as “sensitive”. In addition, the reduction of viability result (in the data set on M2 macrophages; in data set [10]) was “approximately 50%” throughout. For the same compound, the EC50 in the data set with HCoV-229E [8] is 2.9 nM; in the data set with SARS-CoV-2 [9], 1.8 nM; in the data set on MERS-CoV [12], 1.9 nM. The TEER signal reduction with NHBE cells (human) is ~ 25%. For the same compound, the “translation inhibition of HEVgt3c 5′-UTR reporter” value with 5′-UTR of HEV (HEVgt3c) is “translation inhibition only in the presence of a polypurine stretch”. For the same compound, the “translation inhibition of HEVgt3c-Purine” value in the data set with 5′-UTR of HEV (HEVgt3c) is recorded as “regain translation inhibition”. The effect on viability entry with T cells is reported as “not affected”. For the same compound, in the data set with MERS-CoV [11], the “effect on the replication of MERS-CoV” value is recorded as “no significant effect”. Besides, in the data set on MERS-CoV [11], the “reduction of viral replication” value is listed as “nearly undetectable levels”.
`COC(=O)[C@H]1[C@@H](O)[C@@]2(O)c3c(OC)cc(O[C@@H]4O[C@@H]([C@H](O)CO)CO[C@H]4OC)cc3O[C@@]2(c2ccc(OC)cc2)[C@@H]1c1ccccc1` [Silvestrol]: the “translation efficiency” value in data set [7] was “sensitive”. Besides, the reduction of viability entry in the data set with M2 macrophages is “approximately 50%”. In addition, the EC50 with HCoV-229E [8] was 3 nM. Further, in the data set on 5′-UTR of HEV (HEVgt3c), the “translation inhibition of HEVgt3c 5′-UTR reporter” value is on record as “either a stable hairpin substrate or a polypurine stretch is sufficient”, the “translation inhibition of HEVgt3c-Purine” value is given as “regain translation inhibition” and the “translation inhibition of destabilized variants” value is “loss of the inhibitory effects”. For the same compound, the effect on viability entry with T cells is on record as “not affected”. Further, the reduction of viability entry in [10] is “approximately 50%”. Also, the EC50 with MERS-CoV [12] is 1.3 nM.
In the case of `COc1cc2c(c(OC)n1)[C@]1(O)[C@H](O)[C@H](CN(C)C)[C@@H](c3ccccc3)[C@]1(c1ccc(C#N)cc1)O2` [Zotatifin], the “viability reduced to” value with human monocytes is listed as “approximately 75%”. For the same compound, in [7], the “translation efficiency” value is listed as “sensitive” and the “translation inhibition compared with 10 nM of silvestrol or CR-1-31-B” value was “slightly weaker”. In addition, in the data set with SARS-CoV-2 [13], it took 41.6 nM to reach a half-maximal effect (EC50) and the “fold less efficient (higher EC50) than CR-1-31-B against SARS-CoV-2” value is given as “around 20 fold”. Besides, the EC50 in the data set with SARS-CoV-2 [13] (Severe acute respiratory syndrome coronavirus 2, Vero C1008) was found to be 41.6 nM. For the same compound, in the data set on MRC-5 cells, the cytotoxicity result was “no significant cytotoxicity”. Besides, the “cytotoxicity by TEER” value in the data set on NHBE cells is reported as “no significant cytotoxicity”. For the same compound, in the data set on 5′-UTR of HEV (HEVgt3c), the “translation inhibition of HEVgt3c 5′-UTR reporter” value is “translation inhibition”, the “translation inhibition of HEVgt3c-Purine” value is “regain translation inhibition” and the “translation inhibition of destabilized variants” value is on record as “loss of the inhibitory effects”. The compound also returned an EC50 with HCoV-229E [14] of 3.86 nM. Moreover, in the data set with HCoV-229E [14] (Human coronavirus 229E, MRC5), the EC50 was 3.9 nM. Further, a half-maximal response with MERS-CoV [15] (EC50) required 4.31 nM. Moreover, the EC50 with MERS-CoV [15] (Middle East respiratory syndrome-related coronavirus, MRC5) worked out at 4.3 nM. Also, the EC90 in the data set with SARS-CoV-2 [16] was 37 nM. Moreover, in the data set with MERS-CoV [11], the “effect on the replication of MERS-CoV” value is “no significant effect” and the “reduction of viral replication” value is “about two orders of magnitude”.
